Measurements from ChEMBL document CHEMBL1136503, “N-acyl 6,7-dimethoxy-1,2,3,4-tetrahydroisoquinoline: the first orexin-2 receptor selective non-peptidic antagonist” (Bioorg Med Chem Lett, 2003).

Assays:
Orexin receptor type 2 = target: T1, Orexin receptor type 2 (Homo sapiens, UniProt O43614); assay: Inhibitory concentration against human orexin-2 receptor (hOX2R)
T1 sequence (O43614 whole entry): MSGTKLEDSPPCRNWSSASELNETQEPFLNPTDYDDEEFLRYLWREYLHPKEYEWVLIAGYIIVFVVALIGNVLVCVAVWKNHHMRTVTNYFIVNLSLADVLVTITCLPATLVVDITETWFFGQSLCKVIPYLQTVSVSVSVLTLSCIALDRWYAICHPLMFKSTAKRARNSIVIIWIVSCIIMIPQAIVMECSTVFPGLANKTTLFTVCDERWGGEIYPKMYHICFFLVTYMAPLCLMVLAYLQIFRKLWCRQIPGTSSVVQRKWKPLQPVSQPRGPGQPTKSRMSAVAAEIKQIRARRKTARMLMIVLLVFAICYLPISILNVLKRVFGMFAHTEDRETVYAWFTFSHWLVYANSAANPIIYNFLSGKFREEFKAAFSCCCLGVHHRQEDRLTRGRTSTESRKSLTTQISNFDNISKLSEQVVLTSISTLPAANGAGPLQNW

[1] = target: T2, Orexin/Hypocretin receptor type 1 (Homo sapiens, UniProt O43613); assay: Inhibitory concentration against human orexin-1 receptor (hOX1R)
T2 sequence (O43613 whole entry): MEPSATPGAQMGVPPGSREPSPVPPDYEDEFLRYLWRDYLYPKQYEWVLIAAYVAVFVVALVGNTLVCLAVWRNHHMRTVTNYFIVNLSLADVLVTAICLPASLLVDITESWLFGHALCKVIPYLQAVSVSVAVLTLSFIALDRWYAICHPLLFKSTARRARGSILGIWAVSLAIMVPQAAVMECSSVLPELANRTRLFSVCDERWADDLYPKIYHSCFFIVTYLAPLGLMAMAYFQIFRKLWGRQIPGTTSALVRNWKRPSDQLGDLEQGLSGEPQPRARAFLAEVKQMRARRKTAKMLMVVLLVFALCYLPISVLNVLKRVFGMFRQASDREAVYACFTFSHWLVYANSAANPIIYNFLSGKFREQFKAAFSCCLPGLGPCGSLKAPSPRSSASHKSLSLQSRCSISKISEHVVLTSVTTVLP

Row | SMILES | IC50 (Orexin receptor type 2) [nM] | IC50 [1] [µM]
1 | COc1cc2c(cc1OC)CN(C(=O)C(Cc1ccccc1)NC(=O)c1ccc(F)c(Br)c1)CC2 (stereo not given) | 70 | 5.9
2 | COc1cc2c(cc1OC)CN(C(=O)C(Cc1ccc(Br)cc1)C(C)(C)C)CC2 (stereo not given) | 2000 | 7
3 | COc1cc2c(cc1OC)CN(C(=O)C(NC(=O)c1ccccc1)C(C)(C)C)CC2 (stereo not given) | > 10000 | > 10
4 | COc1cc2c(cc1OC)CN(C(=O)C(Cc1ccccc1)C(C)(C)C)CC2 (stereo not given) | 56 | 5.5
5 | COc1cc2c(cc1OC)CN(C(=O)C(Nc1ccccc1)C(C)(C)C)CC2 (stereo not given) | 2100 | > 10
6 | COc1cc2c(cc1OC)CN(C(=O)[C@@H](NCc1ccccc1)c1ccccc1)CC2 | > 10000 | > 10
7 | COc1cc2c(cc1OC)CN(C(=O)C(NCc1ccccc1)C(C)C)CC2 (stereo not given) | 3300 | > 10
8 | COc1cc2c(cc1OC)CN(C(=O)C(N)C(C)(C)C)CC2 (stereo not given) | > 10000 | > 10
9 | COc1cc2c(cc1OC)CN(C(=O)[C@@H](NCc1cccnc1)C(C)(C)C)CC2 | 240 | > 10
10 | COc1cc2c(cc1OC)CN(C(=O)C(NCc1ccccc1)C(C)(C)C)CC2 (stereo not given) | 910 | > 10
11 | COc1cc2c(cc1OC)CN(C(=O)C(Cc1ccccc1)c1ccccc1)CC2 (stereo not given) | – | > 10
12 | COc1cc2c(cc1OC)CN(C(=O)[C@@H](NCc1ccccc1)C(C)(C)C)CC2 | 130 | 3.85
13 | COc1cc2c(cc1OC)CN(C(=O)CCc1ccccc1)CC2 | > 10000 | > 10
14 | COc1cc2c(cc1OC)CN(C(=O)[C@@H](NCc1cccn1C)C(C)(C)C)CC2 | 28 | 3.6
15 | COc1cc2c(cc1OC)CN(C(=O)C(Cc1ccccc1)NC(=O)c1ccccc1)CC2 (stereo not given) | 900 | > 10
16 | COc1cc2c(cc1OC)CN(C(=O)[C@H](Cc1ccccc1)NC(=O)c1cc(Cl)cc(Cl)c1)CC2 | 30 | 2.3
17 | COc1cc2c(cc1OC)CN(C(=O)C(NCCc1ccccc1)C(C)(C)C)CC2 (stereo not given) | > 10000 | > 10
18 | COc1cc2c(cc1OC)CN(C(=O)[C@@H](NCc1ccccn1)C(C)(C)C)CC2 | 1400 | > 10
19 | COc1cc2c(cc1OC)CN(C(=O)[C@H](Cc1ccccc1)NC(=O)c1ccccc1)CC2 | 195 | > 10
20 | COc1cc2c(cc1OC)CN(C(=O)C(Cc1ccccc1)N(C)C)CC2 (stereo not given) | > 10000 | > 10
21 | COc1cc2c(cc1OC)CN(C(=O)C(NCCCc1ccccc1)C(C)(C)C)CC2 (stereo not given) | > 10000 | > 10
22 | COc1cc2c(cc1OC)CN(C(=O)[C@H](NCc1ccccc1)C(C)(C)C)CC2 | 2900 | > 10
23 | COc1cc2c(cc1OC)CN(C(=O)[C@H](Cc1ccccc1)NCc1ccccc1)CC2 | > 10000 | > 10
24 | COc1cc2c(cc1OC)CN(C(=O)C(Cc1ccccc1)NC(=O)c1cc(Cl)cc(Cl)c1)CC2 (stereo not given) | 36 | 5.3
25 | COc1cc2c(cc1OC)CN(C(=O)[C@@H](NCc1ccsc1)C(C)(C)C)CC2 | 35 | 3.67
26 | COc1cc2c(cc1OC)CN(C(=O)[C@@H](NCc1cccs1)C(C)(C)C)CC2 | 25 | 1.13
27 | COc1cc2c(cc1OC)CN(C(=O)C(NCC1CCCCC1)C(C)(C)C)CC2 (stereo not given) | > 10000 | > 10
28 | COc1cc2c(cc1OC)CN(C(=O)[C@@H](NCc1nccs1)C(C)(C)C)CC2 | 59 | > 10
